Measured values from publication PMC8494430, “Development of a fluorogenic ADAMTS-7 substrate” (Journal of Enzyme Inhibition and Medicinal Chemistry, 2021).

Key:
Assay type in all cases: biochemical
MMP-12 = MMP-12 (Homo sapiens, UniProt P39900); test: MMP-12 FRET peptide inhibition assay; details: Cheng-Prusoff, read-out: Ki app MMP-12
From the text: Substrate and Km values are in micromolar.
2,3-diaminopropionyl diaminopropionic amide; Fam, 5,6-carboxyfluorescein; Mca, 7-
Enzyme Substrate [S] Km Reference

ADAMTS-7 [1] = molecular target: T1, ADAMTS-7 (Homo sapiens, UniProt Q9UKP4); test: Inhibition of ADAMTS-7 cleavage of FRET substrate ATS7FP7
T1 construct: the recombinant construct ADAMTS7-T8, which lacks the C-terminal PLAC domain; made in house
T1 sequence (Q9UKP4 237-1631 limits assumed): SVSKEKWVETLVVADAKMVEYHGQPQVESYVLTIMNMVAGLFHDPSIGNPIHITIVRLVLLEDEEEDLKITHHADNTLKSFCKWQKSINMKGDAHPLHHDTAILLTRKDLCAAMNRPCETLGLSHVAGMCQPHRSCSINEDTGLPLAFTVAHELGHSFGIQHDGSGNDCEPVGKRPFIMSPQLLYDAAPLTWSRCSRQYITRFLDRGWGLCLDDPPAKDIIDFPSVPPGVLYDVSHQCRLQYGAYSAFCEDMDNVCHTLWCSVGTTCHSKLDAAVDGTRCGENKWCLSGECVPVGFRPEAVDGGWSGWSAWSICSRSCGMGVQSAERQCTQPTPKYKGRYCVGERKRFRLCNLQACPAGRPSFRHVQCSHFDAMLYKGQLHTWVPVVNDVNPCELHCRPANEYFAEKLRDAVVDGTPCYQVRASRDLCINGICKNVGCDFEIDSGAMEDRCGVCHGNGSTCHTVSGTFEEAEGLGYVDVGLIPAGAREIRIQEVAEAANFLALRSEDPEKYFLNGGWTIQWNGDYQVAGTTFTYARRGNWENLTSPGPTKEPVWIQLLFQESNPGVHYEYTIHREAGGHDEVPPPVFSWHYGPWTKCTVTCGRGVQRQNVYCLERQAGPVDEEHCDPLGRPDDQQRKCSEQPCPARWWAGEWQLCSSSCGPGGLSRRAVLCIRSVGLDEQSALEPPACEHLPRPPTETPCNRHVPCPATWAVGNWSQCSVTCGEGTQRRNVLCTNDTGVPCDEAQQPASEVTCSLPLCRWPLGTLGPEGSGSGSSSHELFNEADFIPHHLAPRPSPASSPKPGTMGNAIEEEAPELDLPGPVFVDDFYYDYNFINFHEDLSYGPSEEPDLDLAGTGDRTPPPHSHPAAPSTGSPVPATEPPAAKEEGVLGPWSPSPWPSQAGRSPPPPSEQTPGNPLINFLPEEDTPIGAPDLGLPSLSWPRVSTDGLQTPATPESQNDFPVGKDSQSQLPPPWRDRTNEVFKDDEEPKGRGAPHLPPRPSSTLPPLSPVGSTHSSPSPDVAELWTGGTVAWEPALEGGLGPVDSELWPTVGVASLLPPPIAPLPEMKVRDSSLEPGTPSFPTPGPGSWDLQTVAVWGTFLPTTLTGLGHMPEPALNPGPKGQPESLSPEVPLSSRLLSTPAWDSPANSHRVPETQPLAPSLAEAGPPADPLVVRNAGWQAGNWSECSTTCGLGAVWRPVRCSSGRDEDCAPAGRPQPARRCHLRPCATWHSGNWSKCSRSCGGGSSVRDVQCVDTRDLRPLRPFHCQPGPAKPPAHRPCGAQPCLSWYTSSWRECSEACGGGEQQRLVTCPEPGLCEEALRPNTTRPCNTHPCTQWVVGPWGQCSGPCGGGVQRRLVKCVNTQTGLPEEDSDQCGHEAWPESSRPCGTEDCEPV
Experimental: All enzyme assays were conducted in TNC-B buffer (50 mM Tris- HCl, pH 7.5, 150 mM NaCl, 10 mM CaCl2, and 0.02% NaN3) at 37 °C in 384 well plates (Cat. No: 784900, Greiner Bio-One, Austria). To avoid the formation of inhibitor or peptide aggregates, the detergent Brij-35 (0.05%) was added to TNC-B[13]. For inhibition studies, stock solutions of chemical compounds were prepared in dimethyl sulfoxide (DMSO) (10 mM). […] Blank samples were prepared using buffer only and the rate of cleavage for blank reactions was subtracted from the rates measured in the presence of enzyme. Upon addition of the indicated ADAMTS-7 FRET substrates (40 µM), the fluorescence was measured immediately using a FLUOstar Omega microplate reader (BMG Labtech, Germany) with an excitation filter wavelength of 485 nm and an emission filter wavelength of 520 nm.

ADAMTS-7 [2] = molecular target: T1, ADAMTS-7; test: Cleavage of FRET peptides by ADAMTS-7 (kinetic constants, cleavage rate); details: 37 °C
Experimental: All enzyme assays were conducted in TNC-B buffer (50 mM Tris- HCl, pH 7.5, 150 mM NaCl, 10 mM CaCl2, and 0.02% NaN3) at 37 °C in 384 well plates (Cat. No: 784900, Greiner Bio-One, Austria). To avoid the formation of inhibitor or peptide aggregates, the detergent Brij-35 (0.05%) was added to TNC-B[13]. For inhibition studies, stock solutions of chemical compounds were prepared in dimethyl sulfoxide (DMSO) (10 mM). These were further diluted at different concentrations in TNC-B and incubated with ADAMTS-1, ADAMTS-4, ADAMTS-5, ADAMTS-7 or ADAMTS-8 (10 nM) for 1 h at 37 °C. Blank samples were prepared using buffer only and the rate of cleavage for blank reactions was subtracted from the rates measured in the presence of enzyme. Upon addition of the indicated ADAMTS-7 FRET substrates (40 µM), the fluorescence was measured immediately using a FLUOstar Omega microplate reader (BMG Labtech, Germany) with an excitation filter wavelength of 485 nm and an emission filter wavelength of 520 nm.
Relative Fluorescence Units (RFU) were converted into product concentration by dividing for the number of RFU generated upon complete digestion of 2.5 µM substrate. kcat values were determined by dividing Vmax by [E]t. Correction for inner filter effects was performed as before.

[3] = cleavage of ATS7FP7 by ADAMTS-7 (10 nM)

Sequence of MMP-12 (P39900 106-470): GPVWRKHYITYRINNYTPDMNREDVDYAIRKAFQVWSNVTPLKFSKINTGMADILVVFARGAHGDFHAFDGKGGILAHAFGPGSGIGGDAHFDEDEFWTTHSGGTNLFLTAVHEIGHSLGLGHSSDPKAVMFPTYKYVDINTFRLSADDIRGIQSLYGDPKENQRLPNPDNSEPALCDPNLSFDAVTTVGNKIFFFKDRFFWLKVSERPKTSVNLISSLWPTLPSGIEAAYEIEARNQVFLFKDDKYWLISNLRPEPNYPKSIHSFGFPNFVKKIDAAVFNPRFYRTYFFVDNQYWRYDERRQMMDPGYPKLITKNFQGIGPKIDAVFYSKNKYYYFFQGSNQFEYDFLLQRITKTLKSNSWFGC

Compound	Ki (MMP-12)	IC50 (ADAMTS-7 [1]; ATS7FP7 40 μM, 1 h preincubation, 37 °C)	increase of ADAMTS-7 inhibition relative to JG23 (ADAMTS-7 [1]; against ATS7FP7)	Ki (ADAMTS-7 [1]; read-out: Ki app (ATS7FP7 substrate))	cleavage rate by ADAMTS-7 (ADAMTS-7 [2]; FRET peptides 40 μM, ADAMTS-7 10 nM)	Km (ADAMTS-7 [2]; [3])	kcat (ADAMTS-7 [2]; [3])
O=C(NCCC[C@@H](NS(=O)(=O)c1ccc(OCc2ccc(F)cc2Cl)cc1)C(=O)NO)c1ccccc1 [EDV33]	0.53 ± 0.06 nM	330 ± 70 nM	approximately 2 fold	68 ± 14 nM			
Glu-Ala-Ala-Ala-Arg↓Ala-Glu↓Ala-Ala-Ala-Lys [ATS7FP7]					increased compared to that of ATS7FP0	10.5 ± 1.5 µM	0.035 ± 0.0017 s⁻¹
